Test [1] deals with T1, HSA (V) (Homo sapiens, UniProt P02768).
T1 construct: Human serum albumin, fraction V, with a purity ≧95% as indicated by cellulose acetate electrophoresis; purchased Calbiochem 12666
Briefly: Isothermal titration calorimetry of the probe with HSA. It counts as binding. To be noted: ITC, PBS. How it is done:
The bottom plot represents the isothermal titrating calorimetry results integrated enthalpies and least-squares curve fit for the probe interaction with HSA (V) in PBS.
Isothermal titration calorimetry experiments were performed using an OMEGA titrating microcalorimeter from Microcal, Inc. (Northampton, Mass.). Data collection, analysis, and plotting were performed using a Windows-based software package (Origin 5.0) supplied by the instrument vendor. The titrating microcalorimeter consisted of a sample and reference cell held in an adiabatic enclosure. The calorimeter was calibrated by comparing the measured areas of applied heat pulses to known values. Known and experimentally measured values agreed to within 2%.
The probe was prepared in DMSO at 10 mM and diluted to 500 μM in PBS. the probe and HSA solutions were degassed prior to analysis. The reference cell was filled with PBS. A 20 μM solution of HSA in PBS was placed in the 1.37 mL sample cell and the probe (0.5 mM) was held in a 250 μL syringe. Thirty injections (6 μL each) of the probe were made by a computer-controlled stepper motor into the sample cell filled with HSA held at 37° C. The syringe stir rate was 400 rpm. The heat adsorbed or released with each injection was measured by a thermoelectric device connected to a Microcal nanovolt preamplifier. Titration isotherms for the binding interactions were comprised of the differential heat flow for each injection. Heats of dilution obtained by injecting ligand into dialysate buffer were minor but were subtracted prior to fitting the data. Isotherms fit well to a single site model (Wiseman, T., et. al. Anal. Biochem (1989) 179, 131-137) using an iterative nonlinear least-squares algorithm included with the instrument.
All parameters were floated during the iterations until a minimum %^2 was obtained between experimental and fit data. […] The change in free energy (ΔG) and change in entropy (ΔS) were determined using the Gibbs' free energy equation. […]
(ITC needs no label: the signal is the heat of the interaction.)

In test [2] the target is HSA (fraction V) (Homo sapiens, UniProt P02768). Briefly: biochemical.

With `Cn1c(/C=C/c2ccc(C#N)cc2C(=O)O)cc2ccccc21` [the probe, 5-cyano-2-[(E)-2-(1-methyl-1H-indol-2-yl)ethenyl]benzoic acid], in test [1], the “enthalpy change for the interaction” value is -10.4 kcal/M. For the same compound, the Kd turned out to be 15 µM in test [1] (read-out: average affinity for all binding interactions) and 0.39 µM in test [2]. In addition, the “molecules of the probe bound per HSA (stoichiometry)” value in test [1] (single-site model) is on record as “approximately 2”.

Source of the values: patent publication US20050003449A1, “Method for determining molecular affinities for human serum albumin” (priority 2003, published 2005).
